Where a SMILES comes first, the peptide text is derived from it.

Assay [1] has as its system BDNF, TrkB, PGC1a, DARPP32. Description: Neurotrophic and mitochondrial proteins in cortex of R6/2 mice after daily SC administration. Type of assay: in vivo, mouse. To be noted: 13 mg/kg SC daily, 8 to 12 weeks of age. Here is the method: In a separate study, we validated target engagement of P1 (SEQ ID NO: 1) in R6/2 mice (mouse model of Huntington's), when treated for a prolonged period in the late stage of disease in this model. R6/2 mice were obtained from the Jackson Laboratory as: • FEMALE B6CBA-Tg(HDexon1)62Gpb/3J, stock 006494. Hemizygous (R6/2) • FEMALE B6CBA-Tg(HDexon1)62Gpb/3J, stock 006494. NonCarrier (WT controls)
(§1) The R6/2 mice were injected with a daily dose of 13 mg/kg of P1 subcutaneously in 4.38 mM L-His, 140 mM NaCl, 0.2% Tween-20 and 1500 IU hyaluronidase (pH 6.15) between 8 weeks to 12 weeks of age. At 12 weeks of age, mice were sacrificed and their brains removed and both hippocampus—cortex and striatal tissue was isolated and lysed in RIPA lysis buffer containing containing cOmplete and phosSTOP.
Levels of both BDNF and its receptor, TrkB, were validated along with levels of the mitochondrial master regulator PGC1a. In addition, levels of DARPP32, a marker of medium spiny neurons (MSN), which are the neurons that ultimately perish in HD, were evaluated in cortex tissue.

For a further assay, the system named is CREB. As to the kind of experiment: CREB activation in GRN+/- cortical neurons, western blotting. To be noted: 1 uM, 20 minutes. Format: cell-based, mouse. Here is the method:
In this study, it was examined whether peptide P1 could increase phosphorylation of CREB (ser133) similar to wild-type neurons. To study the activation of CREB, cortical neurons were isolated from GRN+/−p0 […] mice and seeded in a density of 500,000 per well. After 7 days in vitro the neurons were stimulated with peptide P1 at 1 uM in neurobasal A media at 37° C. and 5% CO2 and incubated for 20 minutes. Following, the neurons were lysed in lysis buffer containing DTT and cOmplete cocktail protease inhibitor and subsequently sonicated to disrupt the nuclear membrane. The phosphorylation of CREB on serine 133 was subsequently validated by western blotting. The levels of phosphorylated CREB were normalized to the corresponding beta-actin levels. Student's t-test was used for statistical analysis.
On the technique in general: Immunoblotting shows a protein as a band on a membrane.

Assay [2] relates to GRN+/- hippocampal neurons. As to the kind of experiment: Lysosomal acidification in GRN+/- hippocampal neurons, LysoSensor DND-189. Type of assay: cell-based, mouse. Particulars: 1 uM, 4 hours. The protocol:
(§2) Primary hippocampal neurons from GRN+/− mice were seeded in an 8-well ibidi chamber pre-coated with Poly-I and laminin. 75,000 neurons were seeded pr. well. After 5 days in vitro the neurons were stimulated for 4, 8 or 24 hours with peptide P1 at 1 uM in neurobasal A with B27. After stimulation, the medium was changed to pre-warmed (37° C.) neurobasal A containing 1 uM of LysoSensor probe DND-189 (an acidotropic probes that accumulates in acidic organelles as the result of protonation) and incubated for 30 min. at 37° C. in a 5% C02 atmosphere. Hereafter, the media was changed to pre-warmed FluoroBrite Medium and the neurons were imaged in Olympus microscopy system. Pictures were taken of the lysosomes and processed using the ScanR imaging software to give fluorescence (intensity) of each lysosomal vesicle. The summed total intensity of all lysosomes was calculated and divided by the total number of neurons imaged yielding the total intensity of lysosomes per neuron. Student's t-test was used for statistical analysis.

Assay [3] has as its system R6/2 mice (mouse model of Huntington's). Description: Brain weight and activity studies in R6/2 mice (open field, clasping, rotarod). Format: in vivo. Particulars: 13 mg/kg SC daily. Here is the method:
as §1
Prior to treatment (8 weeks of age), the R6/2 mice were weighed and assessed for clasping and rotarod behavior before randomization to 4 cages of n=6 each (two cages pr treatment group). The experimenter remained blinded throughout the studies and data analysis. Motor coordination was measured by hind-limb clasping and rotarod between week 7-12.
Clasping: Mice were once weekly assessed for clasping behavior. Mice were placed on the top grid of a cage and then held by the tail and lifted over the top of the homecage for 10 successive trials of 3 seconds with 3 second rest intervals
Rotarod: Accelerating test—cylinder accelerates from 4 to 40 RPM in 5 minutes with linear speed progression. During the first week of training, mice undergo 3 trials per day for 3 consecutive days. During training sessions, mice receive “second changes” when falling from the rotarod. The following weeks, mice are tested on only one day for 3 consecutive trials. The mean latency to fall is used for data analysis.
At 11 weeks of age, mice were subjected to an open field consisting of a 40×40 cm box with transparent Plexiglas walls of 50 cm height. Their behaviour was recorded using an automated tracking software and camera (Anymaze, Havard apparatus). Distance travelled and number of rears were recorded over a 20 min. period.
Brain weight: At 12 weeks of age, mice were sacrificed and the entire brain was carefully extracted and weighed using a fine-scale weigh.
(In general: The rotarod test checks motor coordination on a turning rod.)

Assay [4] concerns AMPK (T172) and Raptor (S792). As to the kind of experiment: Phosphorylation of AMPK (T172) and Raptor (S792) in cortical neurons, western blotting. Type of assay: cell-based, mouse. To be noted: 1 uM, 20 minutes. The protocol:
To assess the ability of peptide P1 to activate AMPK and subsequently inactivate the mTOR complex, mouse cortical neurons were isolated from p0 wild-type mice and seeded in a density of 250,000 per well in a 12-well tray. After 7 days in vitro the neurons were stimulated with P1 in neurobasal A media and incubated at 37° C. and 5% CO2 for 20 minutes. Hereafter, the neurons were lysed in lysis buffer containing DTT and cOmplete cocktail protease inhibitor. The phosphorylation of AMPK (T172) and Raptor (S792) was validated by western blotting normalized to beta-actin.

Assay [5] relates to primary hippocampal neurons. As to the kind of experiment: Lysosomal acidification in wild-type hippocampal neurons, LysoSensor DND-189 live imaging. Format: cell-based, mouse. Particulars: 1 uM. Here is the method:
as §2, with “neurons” for “neurons from GRN+/− mice”, “75.000” for “75,000”

The mark [6] stands for this setting: 11 weeks of age, 20 min, vs vehicle.

Take `CSCC[C@@H]1NC(=O)[C@H](C(C)C)NC(=O)[C@H](CC(=O)O)NC(=O)[C@H](CCC(=O)O)NC(=O)[C@H](CCC(=O)O)NC(=O)[C@H](Cc2c[nH]cn2)NC(=O)[C@H](CCC(=O)O)NC(=O)[C@H](C(C)C)NC(=O)[C@@H]2CCCN2C(=O)[C@H](CCC(=O)O)NC(=O)[C@H]([C@@H](C)O)NC1=O` [Peptide P1, [MTEPVEHEEDV]] (cyclo(MTEPVEHEEDV)): in assay [1], the “BDNF levels in cortex” value is reported as “significantly higher basal levels”, the “DARPP32 levels in cortex” value is given as “tendency to increase”, the “PGC1a levels in cortex” value is listed as “significantly higher basal levels” and the “TrkB levels in cortex” value was “significantly higher basal levels”. In addition, the “phosphorylation of CREB (S133)” value with CREB was “able to activate CREB”. The “lysosomal intensity (lysosomal acidification)” value (“lysosomal intensity” below) in assay [2] is “lysosomal intensity was increased”. The “average increase of brain weight” value in assay [3] (8 to 12 weeks of age, at 12 weeks) is 14 mg. In assay [3] (week 8-12), the “motor function, clasping” value is “tendency to improve motor functions” and the “motor function, rotarod” value is on record as “tendency to improve motor functions”. Besides, in assay [3] (setting [6]), the “distance travelled, open field” value is recorded as “significantly higher” and the “rearing frequency, open field” value is “significantly higher”. In assay [4], the “AMPK phosphorylation on T172” value is recorded as “activates AMPK” and the “Raptor phosphorylation on S792” value is given as “inactivates Raptor”. Also, the “lysosomal intensity” value in assay [5] (4 hours) is given as “lysosomal intensity was increased”. Further, the “lysosomal intensity” value in assay [5] (8 hours) is “lysosomal intensity was increased”. In addition, the “lysosomal intensity” value in assay [5] (24 hours) is given as “no difference”.

Values taken from patent publication US20230312652A1, “NOVEL PEPTIDES AND USES THEREOF” (Aarhus Universitet, priority 2020, published 2023).
